This passage reports IC50 results from patent US20140329858A1, “Cyclic Urea Derivatives As Androgen Receptor Antagonists” (priority 2011, published 2014).

Usually IC50 stands for the concentration that gives 50% inhibition.

For one test, the system named is Vcap cells. As to the kind of experiment: Dihydrotestosterone (DHT) mediated XTT cell proliferation assay for screening AR antagonists using Vcap cells. The test is classed as cell-based. The note with it: Homo sapiens, 240 h, in the presence of 0.2 nM DHT, XTT readout on Day 10, IC50 curves from 8 concentrations. On the procedure: Dihydrotestosterone (DHT) Mediated XTT Cell Proliferation Assay for Screening AR Antagonists Using Vcap cells
The Vcap cells (4×10^6 cells) were seeded in a T-75 flask containing DMEM with 15% FBS. After 72 hours, the media was removed; the cells were washed once and replaced with phenol red free DMEM containing 8% charcoal stripped serum. Then, the cells were starved in phenol red free DMEM with 8% charcoal stripped serum for 5 days. Following the starvation, the cells were harvested and seeded in 96 well plates (10×10^3 cells per well) in phenol red free DMEM with 8% charcoal stripped serum (Day 0). The cells were allowed to settle and on Day 4 they were treated with different concentrations of the compound (30 μM, 10 μM, 1 μM, 500 nM, 100 nM, 10 nM, 1 nM, 0.1 nM) in the presence of 0.2 nM DHT. DHT alone and a DMSO controls were also included. All treatments were done in triplicate. The drugs were replenished on Day 7 and the cells were allowed to grow for another 72 hours. On Day 10, the experiment was terminated by adding the XTT reagent (2,3-bis[2-methoxy-4-notro-5-sulfophenyl]-2H-tetrazolium-5-caboxyanilide inner salt) dissolved in Phenol red free DMEM without serum. The cells with the XTT reagents were incubated inside the CO2 incubator for 3-4 hours for color development; after which the readings were taken at […] using a spectramax Gemini plate reader.
Data fitting: The IC50 curves for the 8 compound concentrations were calculated with GraphPad Prism software using the sigmoidal dose-response function. (Graphpad Software, San Diego, Calif., USA).
In the case of `CNC(=S)c1ccc(N2C(=O)N(c3ccc(C#N)c(C(F)(F)F)c3)[C@H]3CCCC[C@@H]32)cc1F` [Example 41, 4-((3aS,7 aS)-3-(4-cyano-3-(trifluoromethyl)phenyl)-2-oxooctahydro-1H-benzo[d]imidazol-1-yl)-2-fluoro-N-methylbenzothioamide], the half-inhibitory concentration (IC50) was 134 nM.
As for `N#Cc1ccc(N2C(=O)N(c3ccc(S(N)(=O)=O)c(F)c3)[C@@H]3CCCC[C@H]32)cc1C(F)(F)F` (racemic) [Example 67, Trans-4-(3-(4-cyano-3-(trifluoromethyl)phenyl)-2-oxooctahydro-1H-benzo[d]imidazol-1-yl)-2-fluorobenzenesulfonamide (±)], the half-maximal inhibitory concentration (IC50) was determined as 1090 nM.
On to `CN1C(=O)N(c2ccc(C#N)c(C(F)(F)F)c2)[C@@H]2CCC(c3ccccc3)C[C@H]21` (stereo partly drawn) [Example 90, Trans-4-(3-methyl-2-oxo-5-phenyloctahydro-1H-benzo[d]imidazol-1-yl)-2-(trifluoromethyl)benzonitrile], for which the IC50 is 372 nM.
Turning to `CNC(=O)c1ccc(N2C(=O)N(c3ccc(C#N)c(C(F)(F)F)c3)[C@@H]3CCC=C[C@H]32)cc1F` (racemic) [Example 84, trans-4-(3-(4-cyano-3-(trifluoromethyl)phenyl)-2-oxo-2,3,3a,4,5,7a-hexahydro-1H-benzo[d]imidazol-1-yl)-2-fluoro-N-methylbenzamide (±)], the IC50 was determined as 161 nM.
As for `COCCONC(=O)c1ccc(N2C(=O)N(c3ccc(C#N)c(C(F)(F)F)c3)[C@H]3CCCC[C@@H]32)cc1F` [Example 29, 4-((3aS,7aS)-3-(4-Cyano-3-(trifluoromethyl)phenyl)-2-oxooctahydro-1H-benzo[d]imidazol-1-yl)-2-fluoro-N-(2-methoxyethoxy)benzamide], the IC50 was 176 nM.
For the molecule `CN1C(=O)N(c2ccc(C#N)c(C(F)(F)F)c2)[C@@H]2CCC(c3ccccc3)=C[C@H]21` (racemic) [Example 91, Trans-4-3-methyl-2-oxo-5-phenyl-2,3,3a,6,7,7a-hexahydro-1H-benzo[d]imidazol-1-yl)-2-(trifluoromethyl)benzonitrile (±)], the concentration for half-maximal inhibition (IC50) is 323 nM.
Same read-out and setting: under `Cc1n[nH]cc1N1C(=O)N(c2ccc(C#N)c(C(F)(F)F)c2)[C@@H]2CCCC[C@H]21` (racemic) [Example 52, trans-4-(3-(3-methyl-1H-pyrazol-4-yl)-2-oxooctahydro-1H-benzo[d]imidazol-1-yl)-2-(trifluoromethyl)benzonitrile (±)] stands more than 10000 nM.
The same measure, in the same setting: under `N#Cc1ccc(N2C(=O)N(c3ccc(C(=O)O)c(F)c3)[C@@H]3CCCC[C@H]32)cc1C(F)(F)F` (racemic) [Example 17, Trans-4-(3-(4-cyano-3-(trifluoromethyl)phenyl)-2-oxooctahydro-1H-benzo[d]im-idazol-1-yl)-2-fluorobenzoic acid (±)] stands more than 10000 nM; under `CCOC(=O)c1ccc(N2C(=O)N(c3ccc(C#N)c(C(F)(F)F)c3)[C@@H]3CCCC[C@H]32)s1` (racemic) [Example 8, Trans-ethyl-5-(3-(4-cyano-3-(trifluoromethyl)phenyl)-2-oxooctahydro-1H-benzo[d]imidazol-1-yl)thiophene-2-carboxylate (±)], more than 10000 nM.
`CNC(=O)c1ccc(N2C(=O)N(c3ccc(C#N)c(C(F)(F)F)c3)[C@@H]3CCCC[C@H]32)cc1F` (racemic) [Example 1, Trans-4-{3-[4-cyano-3-(trifluoromethyl)phenyl]-2-oxo-octahydro-1H-1,3-benzodiazol-1-yl}-2-fluoro-N-Methylbenzamide (±)]: the 50% inhibitory concentration (IC50) was found to be 245 nM.
Consider `N#Cc1ccc(N2C(=O)N(Cc3ccc(-n4cccn4)nc3)[C@@H]3CCCC[C@H]32)cc1C(F)(F)F` (racemic) [Example 50, Trans-4-(3-((6-(1H-pyrazol-1-yl)pyridin-3-yl)methyl)-2-oxooctahydro-1H-benzo[d]imidazol-1-yl)-2-(trifluoromethyl)benzonitrile (±)], for which the IC50 was more than 10000 nM.
The same measure, in the same setting: under `COCCONC(=O)c1ccc(N2C(=O)N(c3ccc(C#N)c(C(F)(F)F)c3)[C@@H]3CCCC[C@H]32)cc1F` (racemic) [Example 20, Trans-4-(3-(4-cyano-3-(trifluoromethyl)phenyl)-2-oxooctahydro-1H-benzo[d]im-idazol-1-yl)-2-fluoro-N-(2-methoxyethoxy)benzamide (±)] stands 322 nM; under `N#Cc1ccc(N2C(=O)N(c3ccc(C(=O)N[C@@H]4CCOC4)c(F)c3)[C@@H]3CCCC[C@H]32)cc1C(F)(F)F` (mixture of isomers) [Example 34, 4-((3aR,7aR)-3-(4-cyano-3-(trifluoromethyl)phenyl)-2-oxooctahydro-1H-benzo[d]imidazol-1-yl)-2-fluoro-N—((R)-tetrahydrofuran-3-yl)benzamide and 4-((3aS,7aS)-3-(4-cyano-3-(trifluoromethyl)phenyl)-2-oxooctahydro-1H-benzo[d]imidazol-1-yl)-2-fluoro-N—((R)-tetrahydrofuran-3-yl)benzamide], 317 nM.
On the same count and under the same terms, under `CNC(=O)c1ccc(C2=C[C@H]3[C@@H](CC2)N(c2ccc(C#N)c(C(F)(F)F)c2)C(=O)N3C)cc1F` (racemic) [Example 89, Cis-4-(1-(4-cyano-3-(trifluoromethyl)phenyl)-3-methyl-2-oxo-2,3,3a,6,7,7a-hexahydro-1H-benzo[d]imidazol-5-yl)-2-fluoro-N-methylbenzamide (±)] stands 1000 nM; under `N#Cc1ccc(N2C(=O)N(c3ccc4c(c3)CCO4)[C@H]3CCCC[C@@H]32)cc1C(F)(F)F` [Example 58, 4-((3aS,7aS)-3-(2,3-dihydrobenzofuran-5-yl)-2-oxooctahydro-1H-benzo[d]imidazol-1-yl)-2-(trifluoromethyl)benzonitrile], 547 nM; under `CCN(CC)CCONC(=O)c1ccc(N2C(=O)N(c3ccc(C#N)c(C(F)(F)F)c3)[C@@H]3CCCC[C@H]32)cc1F` (racemic) [Example 26, Trans-4-(3-(4-cyano-3-(trifluoromethyl)phenyl)-2-oxooctahydro-1H-benzo[d]im-idazol-1-yl)-N-(2-(diethylamino)ethoxy)-2-fluorobenzamide (±)], 75.5 nM.
As for `N#Cc1ccc(N2C(=O)N(c3ccc(C(N)=O)c(F)c3)[C@H]3CCCC[C@@H]32)cc1C(F)(F)F` [Example 31, 4-((3aS,7aS)-3-(4-cyano-3-(trifluoromethyl)phenyl)-2-oxooctahydro-1H-benzo[d]imidazol-1-yl)-2-fluorobenzamide], the IC50 was determined as 37.2 nM.
Still for that read-out and setting: under `N#Cc1ccc(N2C(=O)N(c3ccc(C(=O)NC(CO)CO)c(F)c3)[C@H]3CCCC[C@@H]32)cc1C(F)(F)F` [Example 37, 4-((3aS,7aS)-3-(4-cyano-3-(trifluoromethyl)phenyl)-2-oxooctahydro-1H-benzo[d]imidazol-1-yl)-N-(1,3-dihydroxypropan-2-yl)-2-fluorobenzamide] stands 6080 nM; under `N#Cc1ccc(N2C(=O)N(c3ccc(C#N)c(C(F)(F)F)c3)[C@@H]3CCCC[C@H]32)cc1C(F)(F)F` (racemic) [Example 2, Trans-4,4′-(2-oxohexahydro-1H-benzo[d]imidazole-1,3(2H)-diyl)bis(2-(trifluoromethyl)benzonitrile) (±)], 240 nM.

Still in this test, the particulars now being: in the presence of 0.2 nM DHT, XTT readout on Day 10, IC50 curves from 8 concentrations.
Turning to `CNC(=O)c1ccc(N2C(=O)N(c3ccc(C#N)c(C(F)(F)F)c3)[C@@H]3COCC[C@H]32)cc1F` (relative stereo) [Example 71b, Trans-4-{3-[4-Cyano-3-(trifluoromethyl)phenyl]-2-oxo-octahydropyrano[3,4-d]imidazolidin-1-yl}-2-fluoro-N-methylbenzamide (−)], the IC50 was found to be 379 nM.
As for “4-((3aS,7aS)-3-(4-cyano-3-(trifluoromethyl)phenyl)-2-oxooctahydro-1H-benzo[d]imidazol-1-yl)-2-fluoro-N—((S)-tetrahydrofuran-3-yl)benzamide and 4-((3aS,7aS)-3-(4-cyano-3-(trifluoromethyl)phenyl)-2-oxooctahydro-1H-benzo[c]imidazol-1-yl)-2-fluoro-N—((R)-tetrahydrofuran-3-yl)benzamide [Example 35]”, the IC50 is 236 nM.
As for `CNC(=O)c1ccc(N2C(=O)N(c3ccc(C#N)c(C(F)(F)F)c3)[C@@H]3COCC[C@H]32)cc1F` (relative stereo) [Example 71a, Trans-4-{3-[4-Cyano-3-(trifluoromethyl)phenyl]-2-oxo-octahydropyrano[3,4-d]imidazolidin-1-yl}-2-fluoro-N-methylbenzamide (+)], the IC50 is more than 10000 nM.
As for `N#Cc1ccc(N2C(=O)N(c3ccccc3)[C@@H]3CCCC[C@H]32)cc1C(F)(F)F` (relative stereo) [Example 5a, Trans-4-(2-oxo-3-phenyloctahydro-1H-benzo[d]imidazol-1-yl)-2-(trifluoromethyl)benzonitrile (+)], the IC50 was determined as 1760 nM.
In the case of `CNC(=O)c1ccc(N2C(=O)N(c3ccc(C#N)c(C(F)(F)F)c3)[C@@H]3CCCC[C@H]32)cc1F` (relative stereo) [Example 1b, Trans-4-{3-[4-cyano-3-(trifluoromethyl)phenyl]-2-oxo-octahydro-1H-1,3-benzodiazol-1-yl}-2-fluoro-N-Methylbenzamide (−)], the IC50 is 90.5 nM.
